Data taken from ChEMBL document CHEMBL1133842, “Identification of a series of PPAR gamma/delta dual agonists via solid-phase parallel synthesis” (Bioorg Med Chem Lett, 2001).

What was measured:
[1] = Mean plasma concentration at a oral dose of 3 mg/kg in rat at 1.0 hr; format: ADME, organism-based; set-up: dose 3 mg/kg, route oral
[2] = biological target: T1, Peroxisome proliferator-activated receptor gamma (Homo sapiens, UniProt P37231); experiment: Agonistic transcriptional activity in CV-1 cells expressing Gal4-PPAR gamma chimera; format: functional, cell-based
T1 sequence (P37231 whole entry): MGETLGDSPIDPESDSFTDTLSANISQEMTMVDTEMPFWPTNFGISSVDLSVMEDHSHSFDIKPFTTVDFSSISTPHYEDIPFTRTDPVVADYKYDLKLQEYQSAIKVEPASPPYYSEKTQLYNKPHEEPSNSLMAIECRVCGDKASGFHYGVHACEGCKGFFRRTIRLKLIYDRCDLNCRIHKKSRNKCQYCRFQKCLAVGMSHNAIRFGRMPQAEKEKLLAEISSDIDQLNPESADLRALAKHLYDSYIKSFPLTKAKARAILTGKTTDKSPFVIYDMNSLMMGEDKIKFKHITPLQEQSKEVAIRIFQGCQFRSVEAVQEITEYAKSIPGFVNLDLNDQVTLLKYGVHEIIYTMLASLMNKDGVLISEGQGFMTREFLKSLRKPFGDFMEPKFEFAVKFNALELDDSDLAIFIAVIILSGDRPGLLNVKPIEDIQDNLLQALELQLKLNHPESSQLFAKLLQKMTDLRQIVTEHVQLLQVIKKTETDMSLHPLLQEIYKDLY

[3] = biological target: T2, Peroxisome proliferator-activated receptor gamma (Mus musculus, UniProt P37238); experiment: Agonist activity against PPAR gamma; format: functional
T2 sequence (P37238 whole entry): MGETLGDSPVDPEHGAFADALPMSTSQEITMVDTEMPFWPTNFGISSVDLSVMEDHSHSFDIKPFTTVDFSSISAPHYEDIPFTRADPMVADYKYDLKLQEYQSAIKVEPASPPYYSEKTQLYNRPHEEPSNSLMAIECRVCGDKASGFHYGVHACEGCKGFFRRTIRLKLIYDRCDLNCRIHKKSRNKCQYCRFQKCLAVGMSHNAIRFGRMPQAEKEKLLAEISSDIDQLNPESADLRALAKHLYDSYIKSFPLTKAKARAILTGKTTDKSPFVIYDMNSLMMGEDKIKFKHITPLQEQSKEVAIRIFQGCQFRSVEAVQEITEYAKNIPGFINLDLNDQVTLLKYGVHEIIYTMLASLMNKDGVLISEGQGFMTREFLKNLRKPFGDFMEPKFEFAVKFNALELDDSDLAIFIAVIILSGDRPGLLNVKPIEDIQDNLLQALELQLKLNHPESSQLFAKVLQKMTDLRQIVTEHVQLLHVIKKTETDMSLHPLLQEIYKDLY

[4] = biological target: T3, Peroxisome proliferator-activated receptor alpha (Mus musculus, UniProt P23204); experiment: Agonist activity against PPAR alpha; format: functional
T3 sequence (P23204 whole entry): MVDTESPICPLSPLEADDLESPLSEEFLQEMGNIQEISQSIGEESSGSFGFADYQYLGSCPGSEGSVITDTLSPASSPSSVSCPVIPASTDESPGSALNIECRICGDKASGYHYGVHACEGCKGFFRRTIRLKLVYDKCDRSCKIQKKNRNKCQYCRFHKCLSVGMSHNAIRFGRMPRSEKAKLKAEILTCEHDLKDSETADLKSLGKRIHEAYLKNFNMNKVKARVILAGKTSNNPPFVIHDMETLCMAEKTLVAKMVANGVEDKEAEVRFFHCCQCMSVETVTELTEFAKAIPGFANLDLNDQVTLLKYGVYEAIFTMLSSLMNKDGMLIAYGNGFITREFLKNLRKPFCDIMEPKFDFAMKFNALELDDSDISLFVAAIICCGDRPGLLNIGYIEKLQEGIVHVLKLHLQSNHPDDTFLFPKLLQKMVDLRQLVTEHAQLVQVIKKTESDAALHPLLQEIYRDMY

[5] = Mean plasma concentration at a oral dose of 3 mg/kg in rat at 2.0 hr; format: ADME, organism-based; set-up: dose 3 mg/kg, route oral
[6] = test system: Rattus norvegicus; experiment: In vivo increase in HDL-c in ZDF rats at 30 mg/kg bid dose after 7 day administration; format: functional
[7] = biological target: T4, Peroxisome proliferator-activated receptor alpha (Homo sapiens, UniProt Q07869); experiment: Agonistic transcriptional activity in CV-1 cells expressing Gal4-PPAR alpha chimera; format: functional, cell-based
T4 sequence (Q07869 whole entry): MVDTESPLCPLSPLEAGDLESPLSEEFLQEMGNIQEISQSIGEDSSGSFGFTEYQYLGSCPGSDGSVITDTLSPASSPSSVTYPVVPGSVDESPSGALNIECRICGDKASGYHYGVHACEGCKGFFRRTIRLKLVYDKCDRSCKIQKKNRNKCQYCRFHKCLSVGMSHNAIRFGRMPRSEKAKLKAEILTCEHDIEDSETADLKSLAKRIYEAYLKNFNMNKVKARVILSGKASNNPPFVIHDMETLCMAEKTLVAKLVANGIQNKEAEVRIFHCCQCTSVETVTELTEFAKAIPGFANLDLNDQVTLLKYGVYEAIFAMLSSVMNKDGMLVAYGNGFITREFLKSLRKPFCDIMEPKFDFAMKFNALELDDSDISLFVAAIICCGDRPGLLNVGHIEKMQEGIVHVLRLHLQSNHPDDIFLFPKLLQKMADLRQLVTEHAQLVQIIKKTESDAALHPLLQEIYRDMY

[8] = Mean plasma concentration at a oral dose of 3 mg/kg in rat at 0.5 hr; format: ADME, organism-based; set-up: dose 3 mg/kg, route oral
[9] = biological target: T5, Peroxisome proliferator-activated receptor delta (Homo sapiens, UniProt Q03181); experiment: Agonistic transcriptional activity in CV-1 cells expressing Gal4-PPAR delta chimera; format: functional, cell-based
T5 sequence (Q03181 whole entry): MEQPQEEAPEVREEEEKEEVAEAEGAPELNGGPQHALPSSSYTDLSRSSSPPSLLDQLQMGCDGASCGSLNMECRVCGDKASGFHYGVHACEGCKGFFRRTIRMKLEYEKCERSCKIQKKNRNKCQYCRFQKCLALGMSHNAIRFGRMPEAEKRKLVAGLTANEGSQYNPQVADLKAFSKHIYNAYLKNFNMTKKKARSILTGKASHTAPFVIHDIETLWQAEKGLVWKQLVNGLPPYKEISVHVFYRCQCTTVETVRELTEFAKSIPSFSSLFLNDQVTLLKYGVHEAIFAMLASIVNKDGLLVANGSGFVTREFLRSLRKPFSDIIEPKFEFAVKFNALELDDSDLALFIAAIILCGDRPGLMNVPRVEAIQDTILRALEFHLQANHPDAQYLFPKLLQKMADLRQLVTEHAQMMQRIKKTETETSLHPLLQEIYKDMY

[10] = test system: Rattus norvegicus; experiment: In vivo percent reduction in serum triglycerides in ZDF rats at 30 mg/kg bid dose after 7 day administration; format: functional
[11] = test system: Rattus norvegicus; experiment: In vivo percent reduction in plasma glucose in ZDF rats at 30 mg/kg bid dose after 7 day administration; format: functional
[12] = biological target: T6, Peroxisome proliferator-activated receptor delta (Mus musculus, UniProt P35396); experiment: Agonist activity against PPAR delta; format: functional
T6 sequence (P35396 whole entry): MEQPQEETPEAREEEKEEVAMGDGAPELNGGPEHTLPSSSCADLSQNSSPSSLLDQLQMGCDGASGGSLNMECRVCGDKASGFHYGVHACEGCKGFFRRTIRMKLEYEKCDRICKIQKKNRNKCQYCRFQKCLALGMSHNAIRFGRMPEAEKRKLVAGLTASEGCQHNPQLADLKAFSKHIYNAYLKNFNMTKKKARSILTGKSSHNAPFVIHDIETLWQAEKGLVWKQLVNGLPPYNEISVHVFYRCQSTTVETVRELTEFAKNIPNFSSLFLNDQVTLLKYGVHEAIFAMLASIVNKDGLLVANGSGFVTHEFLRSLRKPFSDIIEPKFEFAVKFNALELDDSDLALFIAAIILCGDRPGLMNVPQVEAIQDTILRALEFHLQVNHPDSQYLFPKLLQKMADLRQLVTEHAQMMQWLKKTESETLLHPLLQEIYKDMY

Row | Compound | concentration at 1 h [1] | EC50 [2] | EC50 [3] | EC50 [4] | concentration at 2 h [5] | Reduction [6] | EC50 [7] | concentration at 0.5 h [8] | EC50 [9] | Reduction [10] | Reduction [11] | EC50 [12]
1 | CC(C)(Oc1cccc(CCCN(Cc2ccc(C(F)(F)F)cc2C(F)(F)F)C(=O)Cc2ccc(C(F)(F)F)cc2)c1)C(=O)O | 722 ng/mL | 4 nM | 28 nM | > 1000 nM | 524 ng/mL | 24% | 620 nM | 373 ng/mL | 19 nM | 51% | 47% | 19 nM
2 | CC(C)(Oc1cccc(CCCN(Cc2ccc(C(F)(F)F)cc2C(F)(F)F)C(=O)COc2ccc(Cl)c(Cl)c2)c1)C(=O)O | – | 30 nM | – | – | – | – | 710 nM | – | 93 nM | – | – | –
3 | CCOC(=O)c1ccc(NC(=O)N(CCCc2cccc(OC(C)(C)C(=O)O)c2)Cc2ccc(C(F)(F)F)cc2C(F)(F)F)cc1 | – | 0.5 nM | – | – | – | – | 230 nM | – | 160 nM | – | – | –
